US20020102688A1, “Methods and products for the synthesis of oligosaccharide structures on glycoproteins, glycolipids, or as free molecules, and for the isolation of cloned genetic sequences that determine these structures” (The Regents of the University of Michigan, priority 1990, published 2002)

Key:
[1] = biological target: T1, Fuc-TV (Homo sapiens, UniProt Q11128); experiment: Fucosyltransferase assay, extracts of COS-1 cells transfected with pCDNA1-Fuc-TV; type: biochemical; conditions: for utilization as acceptor substrate by Fuc-TV (in words): extracts of COS-1 cells transfected with pCDNA1-Fuc-TV; for Relative Activity (%) with Fuc-TV: relative product formation rate, N-acetyllactosamine = 100, acceptor 20 mM (2-fucosyllactose 5 mM), GDP-[14C]fucose 3 μM, transfected COS-1 cell extract
T1 construct: a 1.94 kb Earl-Xbal fragment containing the entire open reading frame was cloned into a mammalian expression vector; expressed in transfected cells; host or cells: COS-1 cells, transient transfection, 1% Triton X-100 extract
T1 sequence (Q11128 1-374): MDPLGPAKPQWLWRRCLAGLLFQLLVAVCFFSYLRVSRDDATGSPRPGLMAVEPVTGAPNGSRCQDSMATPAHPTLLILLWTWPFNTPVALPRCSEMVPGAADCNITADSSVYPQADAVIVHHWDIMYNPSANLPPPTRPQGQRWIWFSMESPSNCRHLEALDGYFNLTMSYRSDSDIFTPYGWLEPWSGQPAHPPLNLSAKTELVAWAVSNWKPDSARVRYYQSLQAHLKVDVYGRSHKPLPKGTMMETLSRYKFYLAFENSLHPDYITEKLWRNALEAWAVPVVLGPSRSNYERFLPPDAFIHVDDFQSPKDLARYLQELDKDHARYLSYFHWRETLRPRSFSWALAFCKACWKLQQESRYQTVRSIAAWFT
Method: Cell extracts containing 1% Triton X-100 were prepared from transfected COS-1 cells. Fucosyltransferase assays were performed in a total volume of 20 μl, and contained 25 mM sodium cacodylate, pH6.2, 5 mM ATP, 10 mM L-fucose, 10 mM MnCl2, 3 μM GDP-^14C-fucose, and 5 μl of cell extract. Acceptor substrates were added to a final concentration of 20 mM. Reactions were incubated at 37° C. for 1 hour and terminated by addition of 20 μl ethanol, followed by addition of 600 μl of distilled water. An aliquot of each reaction (50 μl) was subjected to scintillation counting to determine total radioactivity in the reaction. Another aliquot (200 μl) was applied to a column containing 400 μl of Dowex 1X2-400, formate form. The flow through fraction, and […] of a subsequent water elution, were collected and pooled, and an aliquot was subjected to scintillation counting to quantitate incorporation of radioactive fucose into neutral product.
Table 2 presents the relative product formation rates obtained with low molecular weight acceptor substrates using cell extracts containing recombinant human α(1,3)fucosyltransferases expressed in transfected COS-1 cells, as described in the preceding sections. Fucosyltransferase assays were performed as described in detail in Lowe et al, J. Biol. Chem., (1991), 266:17467-17477; Weston et al, J. Biol. Chem. (1992), 267:4152-4160; and Kukowska-Latallo et al, Genes. Devel., (1990), 4:1288-1303. For each enzyme, the same extract was used, with saturating amounts of each acceptor oligosaccharide (20 mM, except for 2′-fucosylactose which was used at 5 mM), and GDP-^14C]fucose was present at 3 μM. Reaction times and enzyme amounts were adjusted to ensure a linear rate of product formation (less than 15% of the GDP-fucose substrate consumed). Products were separated by column chromatography and quantitated by liquid scintillation counting, and their structures were confirmed by high performance liquid chromatography, as described in Lowe et al, J. Biol. Chem., (1991), 266:17467-17477; Weston et al, J. Biol. Chem. (1992), 267:4152-4160; and Kukowska-Latallo et al, Genes. Devel., (1990), 4:1288-1303.

[2] = test system: monoclonal anti-H antibody; experiment: Hapten inhibition of anti-H antibody binding to mH1-12 cells (indirect immunofluorescence); set-up: species or system mouse; conditions: antibody preincubated with hapten, 20 mM
Method: Immunofluoroscence was performed on cells plated on 8-well tissue culture chamber slides (Lab-Tek). Cells were plated at a density of 5×10^4/well 24 h prior to analysis. Anti-H and anti-A primary antibodies were diluted in PBS containing bovine serum albumin at 2 mg/ml, to a final concentration of 10 μg/ml. Cell-bound primary antibodies were detected with FITC-conjugated goat anti-mouse IgM, diluted to 40 μg/ml in PBS containing 2 mg/ml bovine serum albumin.
Hapten Inhibition—Plated cells were washed twice with PBS, and were incubated for 30 min at 4° C. with 100 μl of diluted anti-H antibody, or with 100 μl of diluted antibody containing different oligosaccharide haptens, each at a concentration of 20 mM. The chambers were then washed twice, and 100 μl of FITC-conjugated goat anti-mouse IgM was added. After 30 min at 4° C., the chambers were washed three times with PBS, and the cells were fixed at room temperature for 10 min in 3.7% formaldehyde in PBS. The cells were washed twice with PBS, the chambers were removed, and the slide was mounted in PBS containing 25% glycerol. Cells were examined by fluorescence microscopy using a Zeiss Axiophot photomicroscope equipped with fluorescence epiillumination.

utilization as acceptor substrate by Fuc-TV (in words) [1] | Relative Activity (%) with Fuc-TV [1] | Compound | inhibition of anti-H antibody binding to mH1-12 cells by hapten [2]
low efficiency | 10% | CC(=O)N[C@@H]1[C@@H](O[C@@H]2O[C@H](CO)[C@H](O)[C@H](O)[C@H]2O)[C@H](O)[C@@H](CO)O[C@@H]1O [lacto-N-biose I] | –
substantially lower efficiencies | 11% | OC[C@H]1O[C@@H](O[C@H]2[C@H](O)[C@@H](O)C(O)O[C@@H]2CO)[C@H](O)[C@@H](O)[C@H]1O (stereo partly shown) [lactose] | does not inhibit
efficiently utilized | 115% | CC(=O)NC1C(O)OC(CO)C(OC2OC(CO)C(O)C(OC3(C(=O)O)CC(O)C(NC(C)=O)C(C(O)C(O)CO)O3)C2O)C1O (stereo not drawn) [α(2,3)sialyllactosamine, NeuAcα(2→3)Galβ(1→4)GlcNAc] | –
substantially lower efficiencies | 42% | Fucα(1,2)Galβ(1,4)Glc [2-fucosyllactose] | blocked

Compound | utilization as acceptor substrate by Fuc-TV (in words) [1] | Relative Activity (%) with Fuc-TV [1] | inhibition of anti-H antibody binding to mH1-12 cells by hapten [2]
CC(=O)N[C@H]1C(O)O[C@H](CO)[C@@H](O[C@@H]2O[C@H](CO)[C@H](O)[C@H](O)[C@H]2O)[C@@H]1O (stereo partly shown) [N-acetyllactosamine] | utilized | 100% | does not inhibit
